Source: patent US20240309090A1, “MODULATION OF ANDROGEN SIGNALING TO INNATE IMMUNE KILLING OF PROSTATE CANCER” (Brown University, priority 2023, published 2024)

What was measured:
[1] = test system: LNCaP cells; assay: Flow cytometry of HLA-E / PD-L1 surface expression on LNCaP; assay type: cell-based; details: 48 h; for HLA-E surface expression / PD-L1 expression: Example 2, LNCaP; for HLA-E surface expression, mean fluorescence intensity (MFI): LNCaP, enza 15 μM, daro 20 μM
Description: The effect of ARi on the NKG2A ligand, HLA-E, was investigated by flow cytometry on PCa cells treated with enza and daro.
PCa cells were plated at a density of 3×10^5 cells per well of a 6-well plate and adhered overnight. […] After treatment, cells were trypsinized, stained, and incubated (Cell Staining Buffer SouthernBiotech #0225-01S) with the corresponding antibody for 45-60 min at 4° C. Viability dye was added with each run. NK-92 cells and patient-derived cells were stained similarly. Markers used for experiments included: Thermofisher HLA-E Monoclonal Antibody (3D12HLA-E), Alexa Fluor™ 488, eBioscience™, CD274 (PD-L1, B7-H1) Monoclonal Antibody (MIH1), eFluor™ 450, eBioscience™, Cell Signaling PD-1 (D4W2J) XPR Rabbit mAb, SYTOX™ Orange Dead Cell Stain, for flow cytometry, BioLegend APC anti-human CD159a (NKG2A) Antibody #375108, BioLegend APC anti-human CD69 Antibody #310909, BioLegend Alexa Fluor® 647 anti-human CD137 (4-1BB) [4B4-1] #309823. For staining of the patient-derived PBMCs and subsequent NK cell characterization, the following antibodies were used: BioLegend Anti-Perforin Mouse Monoclonal Antibody (PerCP Cy5.50, clone: dG9) #308113, BioLegend Anti-Granzyme B Mouse Monoclonal Antibody (FITC, clone: GB11) #515403, BioLegend Anti-CD56 Mouse Monoclonal Antibody (Alexa Fluor® 700, clone: 5.1H1) #362521, and BioLegend (PE anti-human CD45 Antibody) #304008.
The effect of androgen pathway inhibitors in the expression of HLA-E, a negative and key negative modulator of NK cell function, was also performed using Flow Cytometry. PD-L1 expression levels were also measured. In advance, The NK cell immune checkpoint inhibitor monalizumab (targeting NKG2A and its ligand, HLA-E) was also combined with ARi.

[2] = test system: PCa cell lines (PC3, LNCaP, 22Rv1, DU145); assay: Cytokine profiling of prostate cancer cell culture supernatants (Luminex 200); assay type: cell-based; details: for IFN-γ secretion: DU145, 22Rv1, and PC3 cell lines; for secretion of immune-activating cytokines such as IL-2 / secretion of pro-tumorigenic and immunosuppressive cytokines such as VEGF, M-CSF, IL-8, CXCL10 and GDF-15: PCa cell lines, 24 h
Description: GDF-15 is implicated in the immunosuppressive prostate cancer TME and the progression of benign prostate hyperplasia to adenocarcinoma.
The medium was collected 24 hours after treatment and stored at −80° C. until readout. Samples were shipped to Brown University to run them in biological duplicate on a Luminex 200 Instrument (R&D LX200-XPON-RUO), which captures cytokines on magnetic antibody-coated beads and measures cytokine levels using a system based on the principles of flow cytometry (see https:/www.luminexcorp.com/luminex-100200/#overviewfor more information). A custom […] panel was split into 34-plex and 18-plex assays (R&D LXSAHM) and was run on the Luminex 200 instrument according to the manufacturer's protocol.
We conducted cell viability assays to investigate the effect of Enza and Daro on PC cells (LNCap, 22Rv1 [ARv7 mutation], DU145, PC3 [AR-]) and NK-92 cells. We performed co-culture experiments with PC and NK cells in a 1:1 ratio and analyzed immune cell-mediated tumor cell killing (ImageXpress Confocal HT). Cytokine profiling (Luminex 200) of culture supernatants was performed following treatment with ARi−/+ and anti-IFN-γ antibodies. In vivo studies were performed in NCr Nude mice harboring subcutaneous PC tumors treated orally with Daro (50 mg/kg/bid) and Enza (30 mg/kg/bid) for 4 weeks.

[3] = test system: LNCaP; assay: Co-culture of GFP-expressing LNCaP with patient-derived NK cells; assay type: cell-based, human; details: GFP LNCaP, 1:1, 24 h; monalizumab in combination with enza and daro
Source text: To validate an additive effect of ARi and monalizumab enhancing NK cell cytotoxicity, we performed a co-culture assay with GFP-labeled PCa cell lines (including ARi-sensitive LNCaP and ARi-resistant PC3) and patient-derived NK cells. The NK cells were negatively selected from whole blood from patients with metastatic prostate cancer before initiation of androgen deprivation therapy. The addition of enzalutamide or darolutamide enhanced the cytotoxicity of NK cells, and the combination of ARi with monalizumab potentiated immune killing (FIG. 15C-D).
Prostate cancer cell lines were dyed with the blue CMAC live-cell dye (Thermo Fisher Scientific #C2110, per manufacturer protocol). Blue-fluorescent cancer cells were plated at a density of 10,000 cells per well of a 48-well plate. NK-92 cells were dyed with green CMFDA (Cayman Chemical Company #19583, per manufacturer protocol). Green-fluorescent NK-92 cells were added to the blue-fluorescent cancer cells at a 1:1 ratio. Enzalutamide (10 μM), darolutamide (20 μM), and 1 μM ethidium homodimer (EthD-1) were added at the same time as the NK cells. After 24 hours of co-culture, images of live cancer cells, live NK cells, and dead cells were taken using a fluorescent microscope. The co-culture experiments were run with internal control conditions and as a single treatment. Normalization was performed after analysis to take baseline death conditions into each experiment run. To optimize the high output of these experiments, a subset of co-cultures were performed using the ImageXpress® Micro Confocal High-Content Imaging. This analysis maintained the experiment conditions, drug concentrations, and the dyeing process. When GFP-labeled tumor cells were used for culture assays, they were added in a 1:1 ratio. Cell adhered over 24 h, and when patient-derived NK cells were added, a control well was trypsinized, and cells resuspended and counted to adjust a 1:1 ratio before treatment addition. The experiments with blocking antibodies were performed using the ImageXpress system. TRAIL blocking ab was purchased from Santa Cruz TRAIL Antibody (RIK-2): sc-56246, and IFN gamma blocking Monoclonal Antibody (NIB42, #6-7318-81) was purchased from Thermo Fisher. The blocking mAb was added when NK cells were combined with tumor cells.
NK cells were isolated from patients harboring metastatic castration-sensitive prostate cancer using the MojoSort™ Human NK Cell Isolation Kit (#480053). Patients signed informed consent for IRB-approved research protocol number 2055-13, allowing the collection of peripheral blood samples. […] The untouched NK cells (CD56+, CD3−) were collected, and the purity of isolation was determined by flow cytometry using anti-CD56 (BioLegend 362503). […]

Row | SMILES | HLA-E surface expression [1] | PD-L1 expression [1] | HLA-E surface expression, mean fluorescence intensity (MFI) [1] | IFN-γ secretion [2] | secretion of immune-activating cytokines such as IL-2 [2] | secretion of pro-tumorigenic and immunosuppressive cytokines such as VEGF, M-CSF, IL-8, CXCL10 and GDF-15 [2] | killing of PCa cells by patient-derived NK cells (in words) [3]
1 | CC(O)c1cc(C(=O)N[C@@H](C)Cn2ccc(-c3ccc(C#N)c(Cl)c3)n2)n[nH]1 (some centres unmarked) [darolutamide] | 0.8% | increase | 39.47±3.39×10^3 | upregulation | increased | reduced | enhanced
2 | CNC(=O)c1ccc(N2C(=S)N(c3ccc(C#N)c(C(F)(F)F)c3)C(=O)C2(C)C)cc1F [enzalutamide] | 1.1% | increase | 37.38±1.7×10^3 | upregulation | increased | reduced | enhanced
